Assay results reported in patent US20240239759A1, “ISOXAZOLINE COMPOSITIONS AND THEIR USE AS ANTIPARASITICS” (Intervet Inc., priority 2007, published 2024).
Read-outs that look alike come from different tables or passages of the source.

What was measured:
[1] = system: cat fleas (Ctenocephalides felis); assay: Efficacy of various isoxazolines against cat fleas on mice (Example 3); format: in vivo; conditions: for pest or weed control at 20 mg/kg: Ctenocephalides felis, po, read-out: Flea inhibition relative to negative control
Experimental: In this experiment, mice were randomly assigned to a treatment group or a negative control (untreated) group. Each group consisted of three mice. The mice in the treatment groups were orally administered 20 mg/kg bodyweight of various isoxazolines dissolved in 7% DMF-premix and 93% purified water (aqua ad injectabilia). The application volume of these treatments was 0.01 mL/g bodyweight. One hour after treatment, each mouse was sedated and generally infested (whole body) with 30 vital, adult fleas (C. felis). To achieve this, the sedated mice were placed into an infestation-jar, and the fleas were placed directly onto the fur. After approximately 30 minutes of feeding, fleas were recovered from the mice. Assessments for inhibition and mortality were conducted 1 hr, 24 hr, and 48 hr after each infestation. The efficacy was calculated as the percentage of inhibited fleas in the treatment groups relative to the negative control group.

[2] = system: brown dog ticks (Rhipicephalus sanguineus) nymphs; assay: Efficacy of various isoxazolines against brown dog ticks on Guinea pigs (Example 4); format: in vivo; conditions: po
Experimental: In this experiment, Guinea pigs were randomly assigned to a treatment group or a negative control (untreated) group. Each group consisted of three Guinea pigs. On Day Zero, each Guinea pig was infested with 100 vital nymphs of R. sanguineus. On Day 1, the Guinea pigs in the treatment groups were orally administered 10 mg/kg bodyweight of various isoxazolines dissolved in 7% DMF-premix and 93% purified water (aqua ad injectabilia). Engorged, detached nymphs were counted (eN) from Day 4 to […] on engorged nymphs (%) (eN control group—EeN treatment group)×100 eN control group
In addition, collected ticks were assessed for molting into the next stage.

[3] = system: cat fleas (Ctenocephalides felis); assay: Adult fleas fed on artificial membranes with spiked blood (Example 1); conditions: 48 hr continuous feeding
Experimental: Adult fleas (20-30) were fed on artificial membranes with blood spiked with Compound 10-1, Compound 11-1, or a positive control (fipronil) at a concentration of 100, 10, or 1 ppm. Flea efficacy was assessed after 48 hr of continuous feeding by comparing the number of killed and damaged fleas with the number of fed fleas. Flea efficacy was 100% for Compound 10-1, Compound 11-1, and fipronil at 100, 10, and 1 ppm.

[4] = 24 h, mice, oral 20 mg/kg, infested 1 hr after treatment, 24 hr after infestation
[5] = 48 h, mice, oral 20 mg/kg, infested 1 hr after treatment, 48 hr after infestation
[6] = Guinea pigs, oral 10 mg/kg on Day 1, infested Day Zero, engorged detached nymphs counted from Day 4, read-out: Inhibition (efficacy on engorged nymphs)
[7] = 1 h, mice, oral 20 mg/kg, infested 1 hr after treatment, 1 hr after infestation

| SMILES | pest or weed control at 20 mg/kg [1, 4] [%] | pest or weed control at 20 mg/kg [1, 5] [%] | pest or weed control at 10 mg/kg [2, 6] [%] | pest or weed control at 20 mg/kg [1, 7] [%] | other results |
| --- | --- | --- | --- | --- | --- |
| COC(=O)NC(=O)c1ccc(C2=NOC(c3cc(Br)cc(Br)c3)(C(F)(F)F)C2)cc1C (centres unmarked) [Compound 5-14] | – | – | – | – | pest or weed control at 20 mg/kg ([1]; 1 h): 4.4%; pest or weed control at 20 mg/kg ([1]; 24 h): 13.3%; pest or weed control at 20 mg/kg ([1]; 48 h): 22.2%; pest or weed control at 10 mg/kg ([2]; read-out: Inhibition (efficacy on engorged nymphs)): 22.4% |
| CO/N=C\NC(=O)c1ccc(C2=NOC(c3cc(Cl)cc(Cl)c3)(C(F)(F)F)C2)cc1C (centres unmarked) [Compound 5-43] | 92.2 | 92.2 | 0 | – | – |
| CCON=CNC(=O)c1ccc(C2=NOC(c3cc(Cl)cc(Cl)c3)(C(F)(F)F)C2)cc1I (centres unmarked) [Compound 5-44] | 75.6 | 78.9 | 15.6 | 0 | – |
| Cc1cc(C2=NOC(c3cc(Cl)cc(Cl)c3)(C(F)(F)F)C2)ccc1C(=O)Nc1ncc(C#N)cn1 (centres unmarked) [Compound 5-45] | 92.2 | 93.3 | 0 | 0 | – |
| COCN(C(=O)c1ccc(C2=NOC(c3cc(Cl)cc(Cl)c3)(C(F)(F)F)C2)cc1C)c1ncc(C#N)cn1 (centres unmarked) [Compound 5-46] | 85.6 | 86.7 | 26.4 | 0 | – |
| COC(=O)N(C(=O)c1ccc(C2=NOC(c3cc(Cl)cc(Cl)c3)(C(F)(F)F)C2)cc1C)N(C)c1ccccc1 (centres unmarked) [Compound 5-47] | 95.6 | 96.7 | 58.5 | 0 | – |
| CON=CNC(=O)c1ccc(C2=NOC(c3cc(Cl)cc(Cl)c3)(C(F)(F)F)C2)cc1Cl (centres unmarked) [Compound 5-51] | 97.8 | 97.8 | 52.1 | 0 | – |
| Cc1cc(C2=NOC(c3cc(Cl)cc(Cl)c3)(C(F)(F)F)C2)ccc1C(=O)NN(C)c1ccccc1 (centres unmarked) [Compound 5-52] | 96.7 | 96.7 | 93.4 | 0 | – |
| COC(CNC(=O)c1ccc(C2=NOC(c3cc(Cl)cc(Cl)c3)(C(F)(F)Cl)C2)cc1C)OC (centres unmarked) [Compound 5-53] | 82.2 | 91.1 | – | 0 | – |
| Cc1cc(C2=NOC(c3cc(Cl)cc(Cl)c3)(C(F)(F)F)C2)ccc1C(=O)NC(C)C(=O)NCC(F)(F)F (centres unmarked) [Compound 5-54] | – | – | – | – | Flea inhibition relative to negative control ([1]; mice, oral 20 mg/kg, infested 1 hr after treatment, 1 hr after infestation): 5-47 (0%), 5-54 (0%), |
| Cc1cc(C2=NOC(c3cc(Cl)cc(Cl)c3)(C(F)(F)F)C2)ccc1C(=O)Nc1cncnc1 (centres unmarked) [Compound 5-55] | 92.2 | 93.3 | – | 0 | – |
| CCOCN(C(=O)OC)C(=O)c1ccc(C2=NOC(c3cc(Cl)cc(Cl)c3)(C(F)(F)F)C2)cc1I (centres unmarked) [Compound 5-56] | 87.8 | 88.9 | 76 | 0 | – |
| CC(=O)N(C(=O)c1ccc(C2=NOC(c3cc(Cl)cc(Cl)c3)(C(F)(F)F)C2)cc1C)N(C)c1ccccc1 (centres unmarked) [Compound 5-57] | 86.7 | 87.7 | – | 0 | – |
| CCC(=O)N(Cc1cscn1)C(=O)c1ccc(C2=NOC(c3cc(Cl)cc(Cl)c3)(C(F)(F)F)C2)cc1C (centres unmarked) [Compound 5-58] | 100 | 100 | 100 | 11.1 | – |
| NC(=O)NC(=O)c1ccc(C2=NOC(c3cc(Cl)cc(Cl)c3)(C(F)(F)F)C2)cc1I (centres unmarked) [Compound 5-59] | 94.4 | 95.6 | 96.3 | 18.8 | – |
| CC(=O)N(C(=O)c1ccc(C2=NOC(c3cc(Cl)cc(Cl)c3)(C(F)(F)F)C2)cc1C)c1ncc(Cl)cn1 (centres unmarked) [Compound 5-60] | 96.7 | 96.7 | 78.9 | 26.6 | – |
| CO/N=C\NC(=O)c1ccc(C2=NOC(c3cc(Cl)cc(Cl)c3)(C(F)(F)F)C2)cc1I (centres unmarked) [Compound 5-62] | 81.1 | 81.1 | 88.5 | 10 | – |
| COCN(C(=O)OC)C(=O)c1ccc(C2=NOC(c3cc(Cl)cc(Cl)c3)(C(F)(F)F)C2)cc1C (centres unmarked) [Compound 5-63] | 95.6 | 98.9 | 85.3 | 30 | – |
| Cc1cc(C2=NOC(c3cc(Cl)cc(Cl)c3)(C(F)(F)F)C2)ccc1C(=O)NC1CCCO1 (centres unmarked) [Compound 5-64] | 97.8 | 97.8 | – | 50 | – |
| CCOCN(C(=O)OC)C(=O)c1ccc(C2=NOC(c3cc(Cl)cc(Cl)c3)(C(F)(F)F)C2)cc1C (centres unmarked) [Compound 5-65] | 92.2 | 93.3 | 79.2 | 58.8 | – |
| Cc1cc(C2=NOC(c3cc(Cl)cc(Cl)c3)(C(F)(F)F)C2)ccc1C(=O)NCc1cscn1 (centres unmarked) [Compound 5-66] | 100 | 100 | 100 | 77.8 | – |
| C#CCNC(=O)CNC(=O)c1ccc(C2=NOC(c3cc(Cl)cc(Cl)c3)(C(F)(F)F)C2)cc1C (centres unmarked) [Compound 5-67] | 100 | 100 | – | 80 | – |
| Cc1cc(C2=NOC(c3cc(Cl)cc(Cl)c3)(C(F)(F)F)C2)ccc1C(=O)N[C@@H]1CCOC1 (some centres unmarked) [Compound 5-68] | 91.1 | 95.6 | 100 | 75.5 | – |
| CO/N=C\NC(=O)c1ccc(C2=NOC(c3cc(Cl)cc(Cl)c3)(C(F)(F)F)C2)cc1C (centres unmarked) [Compound 10-1, (Z)-4-[5-(3,5-dichlorophenyl)-5-trifluoromethyl-4,5-dihydroisoxazol-3-yl]-N-[(methoxyimino)methyl]-2-methylbenzamide] | – | – | – | – | Flea efficacy ([3]; blood spiked at 1 ppm): 100%; Flea efficacy ([3]; blood spiked at 10 ppm): 100%; Flea efficacy ([3]; blood spiked at 100 ppm): 100% |
| Cc1cc(C2=NO[C@](c3cc(Cl)cc(Cl)c3)(C(F)(F)F)C2)ccc1C(=O)NCC(=O)NCC(F)(F)F [Compound 11-1R] | 0 | 0 | – | 0 | – |
| CCNC(=O)CNC(=O)c1ccc(C2=NOC(c3cc(Cl)cc(Cl)c3)(C(F)(F)F)C2)cc1C (centres unmarked) [Compound 14-1] | 100 | 100 | – | 97.8 | – |
| Cc1cc(C2=NOC(c3cc(Cl)cc(Cl)c3)(C(F)(F)F)C2)ccc1C(=S)NCc1cscn1 (centres unmarked) [Compound X-1] | 100 | 100 | – | 4.3 | – |
